In assay [1] the test system is HL-60 cells. As to the kind of experiment: Inhibition of cell proliferation, MTT assay. It counts as cell-based, human. To be noted: HL-60, 48 hours. The protocol:
FIGS. 1A-1B. FIG. 1A depicts the main triterpenoic acid constituents of the gum exudates from Boswellia serrata, the source of boswellic acids, represented by boswellic acid, acetyl boswellic acid, 11-keto-boswellic acids, acetyl-11-keto-boswellic acid. […] Cell proliferation analysis was performed in HL-60 cells using the MTT method described in the Examples section. Cells were incubated with each formula 1 analog for 48 hours at indicated concentration and thereafter, the mitochondiral competence of MTT reduction as an index of cell viability was determined. The optical density (OD) of the untreated control was taken as 100% viability. […] This analog, as a prototype, was selected for detailed investigations. Where a=compound of formula 1, R3=COCH2CH2CH3, R1=H, R4=R5=H, b=compound of formula 1, R3=COCH2CH3, R1=H, X=H2, c=compound of formula 1, R3=COCH2CH2CH3, R1=H, R4+R5=O, d=compound of formula 1, R1=H, R3=COCH2CH3, R4=R5=H, e=compound of formula 1, R3=COCH2CH2CH3, R1=H, R4=R5=H, f=β-boswellic acid
Human leukemia cells HL-60 were grown in suspension in 96-well culture plate and were incubated with different concentrations of the test analogs for 48 hr. The cells were then incubated with MTT and the MTT-formazon formed is eluted with DMSO, and OD measured in ELISA Reader [Shashi et al., 2006]. The intensity of the color formed in the untreated control wells relates to 100% cell growth. […]

The subject of assay [2] is Ehrlich Ascitic Carcinoma solid tumor. The assay is described as follows: Ehrlich ascitic tumor (solid) growth inhibition in mice. It counts as in vivo, Swiss albino mice. To be noted: 9 days, evaluated day 13. The protocol:
FIG. 9. Tumor growth inhibition by boswellic acid analogs. Mice treated intraperitoneally with a compound (designated “c”) of formula 1, wherein R3=COCH2CH2CH3, R1=H, R4+R5=O, have shown 22% tumor growth inhibition at a dose of about 50 mg/kg of body weight, and 41% tumor growth inhibition at a dose of 100 mg/kg of body weight.
Swiss albino mice of 6-8 weeks, weighing 18-23 g of single sex were used. For the initiation of experiment, 1×10^7 cells of EAC (Ehrlich Ascitic Carcinoma) cells were transplanted intramuscularly (i.m.) in 32 mice for the development of solid tumors. The day of tumor transplantation was assigned as day 0. Next day (day-1) animals were randomly selected and divided into four groups having equal number of mice in each group of similar body wt. Groups I and II were treated with compound of formula 1 where R3=COCH2CH2CH3, R1=H, R4+R5=O at the dose of 50 mg/kg b, wt and 100 mg/kg b. wt. intraperitoneally, respectively. Group III received 0.2 ml of 0.85% normal saline and served as normal control while group IV serving as positive control was treated with 5-FU (22 mg/kg b. wt.) intraperitoneally. The total duration of treatment was of 9 days. The evaluation of effect of treatment on tumor was done on 13th day. Ehrlich ascites cells (1×10^7) were injected intramuscularly in the right thigh muscles and on the following day animals started receiving treatment intraperitoneally in 0.5% Tween-20 daily at the indicated doses for 9 days. The growth of tumor and the efficacy of compound of formula 1, where R3=COCH2CH2CH3, R1=H, R4+R5=O in inhibiting tumor growth were evaluated on day 13 in terms of the weight of the tumor in treated and control groups count. The determination of solid tumor growth inhibition against EAT was calculated as percent tumor growth regression according to the following: […]

Assay [3] concerns HL-60 cells. As to the kind of experiment: Endogenous nitric oxide, DAF-2-DA flow cytometry. Format: cell-based, human. To be noted: HL-60, 4 hr. The protocol: FIG. 5. Copious early endogenous formation of nitric oxide by compound of formula 1 where R3=COCH2CH2CH3, R1=H, R4+R5=O in HL-60 cells. Nitric Oxide (NO) production was measured by flow cytometry in the FL1 channel using DAF-2-DA (an NO probe) after exposing HL-60 cells for 4 hours to indicated concentrations of SS-145. To investigate the contribution of iNOS to NO production, cells were pre-incubated with iNOS inhibitor sMIT (0.5 mM) for 1 hour prior to treatment with a compound designated “c” (a compound of formula 1 wherein R3=COCH2CH2CH3, R1=H, R4+R5=O). NO and peroxide generation are the early events leading to oxidative stress in the cells. […] It is possible that NO stimulated mitochondrial superoxide generation which together with NO may form peroxynitrite, a dangerous species in producing oxidative damage to the cells and responsible for production of apoptosis
Measurement of in situ NO generation involved the use of a fluorescent probe diaminofluoresceine-2-diacetate, which is permeated easily into the cells. Once inside the cell it binds NO soon it is formed and emits fluorescence [H. Kojima et al, 1998]. For this purpose, the HL-60 cells were incubated with DAF-2-DA for 30 min before being incubated with the indicated concentration of SS-145 for 4 hr. Cells were analyzed on flow cytometer in FL-1 channel for NO. […]
On the technique in general: A flow cytometer gives signals particle by particle.

Assay [4] deals with caspase-3 in Molt-4 cells. As to the kind of experiment: Caspase-3 activation, colorimetric, Molt-4. It counts as cell-based, human. To be noted: 6 hr. The protocol:
FIGS. 8A-8B. Caspase activation in HL-60 cells by boswellic acid analogs. FIG. 8A depicts the results of a colorimetric evaluation of caspase-3 activation in HL-60 cells and Molt-4 cells. Cells were treated with a compound designated “c” (formula 1 compound wherein R3=COCH2CH2CH3, […] and R4+R5=O) at concentrations indicated for 6 hours. Caspase-3 inhibitor (DEVD-fmk) was added 30 min prior to the addition of caspase-3 substrate (DEVD-pNA) to the lysate. Data are mean of triplicate determinations with coefficients of variation less than 10%. […] Caspase-9 inhibitor LEHD-CHO was added 30 min prior to the addition of caspase-9 substrate to validate the specificity of caspase-9. Caspase-9 activity was measured fluorometrically. Data are a mean of triplicate determinations with a coefficient of variation of less than 10%. Caspases are important cysteine-proteases that are involved in the cleavage of DNA specifically producing 180 bp DNA fragments. The enzymes act through different signaling pathways. […] Caspase-9 activity was determined fluorometrically and caspase-3 colorimetrically using kits and the instruction provided by the manufacturer (BD pharmingen, USA). Caspase-3 activity was determined in both Molt-4 and HL-60 leukemia cells while caspase-9 was determined in HL-60 cells.

The structures appear in SMILES notation. “Also recorded” adds a separate entry of the source.

Turning to `CCCC(=O)OC1CCC2(C)C(CCC3(C)C2C(=O)C=C2C4C(C)C(C)CCC4(C)CCC23C)C1(C)C(=O)O` (centres unmarked) [R3=COCH2CH2CH3, R1=H, R4+R5=O], the “effect on cell proliferation compared to other analogs” value in the assay with HL-60 cells [1] is listed as “marginally stronger effect compared to other analogs”. The tumor growth inhibition in assay [2] (50 mg/kg intraperitoneally) worked out at 22%; in assay [2] (100 mg/kg intraperitoneally), 41%. Besides, in the assay on HL-60 cells [3], the nitric oxide generation result is on record as “early generation of NO; also recorded: all the cells formed NO within 6 hr irrespective of the concentration”. In addition, in assay [4], the caspase-3 activation result is reported as “about 50%”.

The values are drawn from patent publication US20090298938A1, “USE OF SEMI SYNTHETIC ANALOGUES OF BOSWELLIC ACIDS FOR ANTICANCER ACTIVITY” (COUNCIL OF SCIENTIFIC & INDUSTRIAL RESEARCH, priority 2008, published 2009).
